According to the NIST ThermoML archive (doi:10.1016/j.jct.2016.03.001):

Experiment: molar heat capacity at constant pressure
Settings: 101.33 kPa, Crystal, Small sample (50 mg) DSC

O=[PH](O)O [phosphonic acid]
Settings | molar heat capacity at constant pressure [J/K/mol]
243.2 K | 48.3
244.2 K | 48.54
245.2 K | 48.62
246.2 K | 48.87
247.2 K | 49.03
248.2 K | 49.36
249.2 K | 49.69
250.2 K | 49.77
251.2 K | 50.1
252.2 K | 50.35
253.2 K | 50.59
254.2 K | 50.59
255.2 K | 50.84
256.2 K | 51
257.2 K | 51.08
258.2 K | 51.17
259.2 K | 51.33
260.2 K | 51.49
261.2 K | 51.9
262.2 K | 52.15
263.2 K | 52.48
264.2 K | 52.72
265.2 K | 52.97
266.2 K | 53.22
267.2 K | 53.54
268.2 K | 53.87
269.2 K | 54.2
270.2 K | 54.28
271.2 K | 54.45
272.2 K | 54.69
273.2 K | 54.86
274.2 K | 55.35
275.2 K | 55.76
276.2 K | 57.81
277.2 K | 58.46
278.2 K | 57.32
279.2 K | 56.91
280.2 K | 57.15
281.2 K | 57.32
282.2 K | 57.56
283.2 K | 57.81
284.2 K | 57.64
285.2 K | 57.64
286.2 K | 57.89
287.2 K | 58.87
288.2 K | 60.18
289.2 K | 60.02
290.2 K | 60.02
291.2 K | 60.1
292.2 K | 60.59
293.2 K | 61.09
294.2 K | 61
295.2 K | 61.09
296.2 K | 61.5
297.2 K | 61.58
298.2 K | 62.07
299.2 K | 62.48
300.2 K | 62.81
301.2 K | 63.38
302.2 K | 63.63
303.2 K | 64.45
304.2 K | 64.94
305.2 K | 65.35
306.2 K | 65.76
307.2 K | 66.33
308.2 K | 66.74
309.2 K | 67.4
310.2 K | 67.65
311.2 K | 68.06
312.2 K | 68.71
313.2 K | 69.37
314.2 K | 70.11
315.2 K | 70.35
316.2 K | 71.09
317.2 K | 71.66
318.2 K | 72.48
319.2 K | 73.22
320.2 K | 73.88
321.2 K | 75.03
322.2 K | 75.93
323.2 K | 77.24
324.2 K | 78.55
325.2 K | 80.44
326.2 K | 81.91
327.2 K | 83.64
328.2 K | 85.11
